# From ChEMBL document CHEMBL1139703, “Synthesis and structure-activity relationships of 3-phenyl-2-propenamides as inhibitors of glycogen phosphorylase a” (Bioorg Med Chem Lett, 2006)
# Biological target: T1, Glycogen phosphorylase, liver form (Homo sapiens, UniProt P06737)
# T1 sequence (P06737 whole entry): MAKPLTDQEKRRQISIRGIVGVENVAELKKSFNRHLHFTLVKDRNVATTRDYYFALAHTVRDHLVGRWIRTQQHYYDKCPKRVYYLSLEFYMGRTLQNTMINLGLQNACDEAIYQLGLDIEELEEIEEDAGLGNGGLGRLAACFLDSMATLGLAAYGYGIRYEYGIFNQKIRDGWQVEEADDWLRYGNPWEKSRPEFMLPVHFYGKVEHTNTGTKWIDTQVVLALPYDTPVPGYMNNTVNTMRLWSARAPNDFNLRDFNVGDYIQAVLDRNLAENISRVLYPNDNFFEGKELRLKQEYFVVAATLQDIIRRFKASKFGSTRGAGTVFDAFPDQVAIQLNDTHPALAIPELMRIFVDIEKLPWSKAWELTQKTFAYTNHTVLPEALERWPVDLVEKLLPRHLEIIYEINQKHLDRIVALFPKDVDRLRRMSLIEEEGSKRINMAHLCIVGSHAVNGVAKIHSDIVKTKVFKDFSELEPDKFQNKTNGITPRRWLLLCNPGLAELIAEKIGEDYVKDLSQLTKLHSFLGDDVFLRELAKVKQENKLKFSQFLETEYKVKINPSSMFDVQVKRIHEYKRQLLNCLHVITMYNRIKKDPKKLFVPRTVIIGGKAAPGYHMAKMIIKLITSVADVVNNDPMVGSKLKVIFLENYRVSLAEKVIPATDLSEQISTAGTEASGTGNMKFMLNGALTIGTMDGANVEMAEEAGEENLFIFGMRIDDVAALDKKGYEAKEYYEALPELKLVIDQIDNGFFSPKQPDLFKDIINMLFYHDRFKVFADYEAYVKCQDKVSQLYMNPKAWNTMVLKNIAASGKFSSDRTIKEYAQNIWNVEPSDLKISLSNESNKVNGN
# Assay: Inhibition of human liver GPa in absence of glucose
# Settings: not given
row,IC50,Compound
1,> 20 µM,O=C(/C=C/c1ccc(Cl)c(Cl)c1)NCCCCCN1CCN(C(=O)Nc2ccc(Cl)c(Cl)c2)CC1

# Biological target: T1, Glycogen phosphorylase, liver form
# Assay: Inhibition of human liver GPa in presence of glucose
# Settings: not given
row,IC50,Compound
1,70 µM,O=C(/C=C/c1ccc(Cl)c(Cl)c1)NCCCCCN1CCN(C(=O)Nc2ccc3c(c2)OCO3)CC1
2,0.44 µM,O=C(/C=C/c1ccc(Cl)c(Cl)c1)NCCCCCCN1CCN(C(=O)Nc2ccc(Cl)c(Cl)c2)CC1
3,100 µM,COc1cccc(NC(=O)N2CCN(CCCCCNC(=O)/C=C/c3ccc(Cl)c(Cl)c3)CC2)c1
4,51 µM,O=C(/C=C/c1ccc(Cl)c(Cl)c1)NCCCCCN1CCCN(C(=O)Nc2ccc(Cl)cc2)CC1
5,10 µM,COc1cccc(NC(=O)N2CCCN(CCCCCNC(=O)/C=C/c3ccc(Cl)c(Cl)c3)CC2)c1
6,100 µM,Cc1ccc(NC(=O)N2CCN(CCCCCNC(=O)/C=C/c3ccc(Cl)c(Cl)c3)CC2)cc1
7,0.72 µM,O=C(/C=C/c1ccc(Cl)c(Cl)c1)NCCCCCN1CCCN(C(=O)Nc2ccc(F)c(Cl)c2)CC1
8,0.17 µM,O=C(/C=C/c1ccccc1)NCCCCN1CCCN(C(=O)Nc2ccc(Cl)c(Cl)c2)CC1
9,0.71 µM,O=C(/C=C/c1ccc(Cl)c(Cl)c1)NCCCCN1CCN(C(=O)Nc2ccc(Cl)c(Cl)c2)CC1
10,0.94 µM,O=C(/C=C/c1ccc(Cl)c(Cl)c1)NCCCCCN1CCN(C(=O)Nc2ccc(Cl)c(Cl)c2)CC1
11,51 µM,O=C(/C=C/c1ccc(Cl)c(Cl)c1)NCCCCCN1CCN(C(=O)Nc2ccc(Cl)c(C(F)(F)F)c2)CC1
12,100 µM,O=C(/C=C/c1ccc(Cl)c(Cl)c1)NCCCCCN1CCN(C(=O)Nc2ccc(Cl)cc2)CC1
13,1.6 µM,O=C(/C=C/c1ccc(Cl)c(Cl)c1)NCCCCCN1CCCN(C(=O)Nc2ccc(Cl)c(C(F)(F)F)c2)CC1
14,100 µM,O=C(/C=C/c1ccc(Cl)c(Cl)c1)NCCN1CCCN(C(=O)Nc2ccc(Cl)c(Cl)c2)CC1
15,0.32 µM,O=C(/C=C/c1ccc(Cl)c(Cl)c1)NCCCN1CCN(C(=O)Nc2ccc(Cl)c(Cl)c2)CC1
16,100 µM,Cc1ccc(NC(=O)N2CCCN(CCCCCNC(=O)/C=C/c3ccc(Cl)c(Cl)c3)CC2)cc1
17,90 µM,O=C(/C=C/c1ccc(Cl)c(Cl)c1)NCCN1CCN(C(=O)Nc2ccc(Cl)c(Cl)c2)CC1
18,1.3 µM,O=C(/C=C/c1ccc(Cl)c(Cl)c1)NCCCCCN1CCCN(C(=O)Nc2cccc(Cl)c2)CC1
19,51 µM,O=C(/C=C/c1ccc(Cl)c(Cl)c1)NCCCCCN1CCN(C(=O)Nc2cccc(Cl)c2)CC1
20,0.63 µM,O=C(/C=C/c1ccc(Cl)c(Cl)c1)NCCCCCN1CCC(C(=O)Nc2ccc(Cl)c(Cl)c2)CC1
21,0.47 µM,O=C(/C=C/c1ccc(Cl)c(Cl)c1)NCCCCCN1CCCN(C(=O)Nc2ccc(Cl)c(Cl)c2)CC1
22,0.98 µM,O=C(/C=C/c1ccc(Cl)c(Cl)c1)NCCCCCN1CCN(C(=O)Nc2ccc(F)c(Cl)c2)CC1
23,24 µM,O=C(/C=C/c1ccc(Cl)c(Cl)c1)NCCCCCCN1CCCN(C(=O)Nc2ccc(Cl)c(Cl)c2)CC1

# Test system: not listed separately
# Assay: Permeability in artificial phospholipid bilayer membrane at pH 7.05
# Assay type: ADME
# Settings: not told, read-out: permeability
row,Papp,Compound
1,9 ×10⁻⁶ cm/s,O=C(/C=C/c1ccc(Cl)c(Cl)c1)NCCCCCN1CCC(C(=O)Nc2ccc(Cl)c(Cl)c2)CC1
